The conditions of series [1]: cited from earlier work; for melting temperature of a triple helix: Sakakibara et al. 1973.
Another series relates to ARPE19 cells. Kind of series: Adherence of RPE cells to MMP-1-digested (cut) collagen plates treated with CMP. It is filed as cell-based, human. The settings on record: 100 μM CMP on cut collagen; 19 hours. As to the method:
Plates were then rinsed with culture medium, and ARPE-19 cells were plated uniformly on plates having one of three surface coating conditions: (1) intact collagen; (2) cut collagen; and (3) cut collagen+CMP. Plates were then incubated at 37° C. for 19 hours, and then examined for cell adherence by phase contrast microscopy.

Series [2] deals with dorsal root ganglia (DRG) neurons. Briefly: Neurite outgrowth in dorsal root ganglion neurons on cut collagen plates treated with CMP. The format is cell-based, rat. The following applies: 100 μM CMP on cut collagen; 48 hours. As to the method:
Plates were then rinsed with culture medium, and DRG neuronal cells were plated uniformly on plates having one of three surface coating conditions: (1) intact collagen; (2) cut collagen; and (3) cut collagen+CMP. Plates were then incubated at 37° C. for 48 hours, and then examined for morphology and neurite outgrowth by inverted brightfield microscopy.

Series [3] has as its system corneal epithelium in wounded mouse eyes. Briefly: In vivo healing of mouse corneal epithelium, wound size by fluorescein staining. The following applies: 100 ng/ml EGF, positive control; 16 hours post-treatment.
Source text: To examine the possible therapeutic effects of CMPs and CMP-TC conjugates of the invention, studies were designed to test certain CMPs and CMP-TC conjugates in an in vivo setting—the healing of the corneal epithelium in wounded mouse eyes. Female mice (8-week-old C57BL/6; seven mice per sample tested) were anesthetized, and corneas of the mouse eyes were wounded with a 1.5 mm superficial epithelial wound of sufficient depth to expose the anterior stroma thereby damaging and exposing the collagen matrix. […] Following wounding, corneas were treated with 25 nM (about 3 mg/kg) CMPs or CMP-TC conjugates, in aqueous PBS. Negative control mice were treated with vehicle only (PBS), and positive control mice were treated with 100 ng/ml epidermal growth factor (EGF). Wound size at various time points over 48 hours was examined by fluorescein staining (see Carlson et al., id.), and documented via fluorescent photomicrography, and quantified using Image J software (see Rush, J. S. et al., Investig. Ophthalmol. Visual Sci. 57 (14): 5864-5871 (2016); Rush, J. S. et al., Investig. Ophthalmol. Visual Sci. 55 (8): 4691-4699 (2014)).

These results are taken from patent US12419936B2, “Collagen peptide-based medicament compositions and devices and methods of production and use thereof” (SUSTAIN HOLDINGS, LLC, priority 2019, dated 2025).

Take (ProProGly)10: the “melting temperature of a triple helix” value in series [1] was 24 °C. For “Flp-Hyp-Gly-Flp-Hyp-Gly-Flp-Hyp-Gly-Flp-Hyp-Gly-Flp-Hyp-Gly-Flp-Hyp-Gly-Flp-Hyp-Gly [CMP B]”, in the series with ARPE19 cells, the “adherence of RPE cells in photomicrographs vs. cut collagen plates” value is listed as “increased adherence” and the “adherence of RPE cells, quantitative, normalized to cut collagen” value is reported as “significantly increased adhesion”.

As for “Pro-Flp-Gly-Pro-Flp-Gly-Pro-Cys-Gly-Pro-Flp-Gly-Pro-Flp-Gly-Pro-Flp-Gly-Pro-Flp-Gly [CMP D]”, the “length of the longest neurite normalized to cut collagen” value in series [2] is “even exceeded that observed with intact collagen”. Also, in the series on ARPE19 cells, the “adherence of RPE cells, quantitative, normalized to cut collagen” value is on record as “significantly increased adhesion”. As for (ProHypGly)10, the “melting temperature of a triple helix” value in series [1] is 58 °C. Further, the “rate at which chains fold into a triple helix” value in series [1] (relative to (ProProGly)10, Chopra and Ananthanarayanan 1982) is “substantially greater”.

Turning to “epidermal growth factor [EGF, positive control in the corneal wound model, 100 ng/ml]”, the “wound healing in mouse cornea and corneal stroma (diameter and intensity of fluorescein fluorescence)” value in series [3] was “lower level of healing”.
